Results taken from US20250388565A1, “ESTROGEN RECEPTOR ALPHA DEGRADERS AND METHODS OF USE THEREOF” (Relay Therapeutics, Inc., priority 2022, published 2025).

Target: T1, ERα protein (HiBiT-tagged) in ESR1_HiBiT KI MCF7 cells (Homo sapiens, UniProt P03372)
T1 sequence (P03372 1-595): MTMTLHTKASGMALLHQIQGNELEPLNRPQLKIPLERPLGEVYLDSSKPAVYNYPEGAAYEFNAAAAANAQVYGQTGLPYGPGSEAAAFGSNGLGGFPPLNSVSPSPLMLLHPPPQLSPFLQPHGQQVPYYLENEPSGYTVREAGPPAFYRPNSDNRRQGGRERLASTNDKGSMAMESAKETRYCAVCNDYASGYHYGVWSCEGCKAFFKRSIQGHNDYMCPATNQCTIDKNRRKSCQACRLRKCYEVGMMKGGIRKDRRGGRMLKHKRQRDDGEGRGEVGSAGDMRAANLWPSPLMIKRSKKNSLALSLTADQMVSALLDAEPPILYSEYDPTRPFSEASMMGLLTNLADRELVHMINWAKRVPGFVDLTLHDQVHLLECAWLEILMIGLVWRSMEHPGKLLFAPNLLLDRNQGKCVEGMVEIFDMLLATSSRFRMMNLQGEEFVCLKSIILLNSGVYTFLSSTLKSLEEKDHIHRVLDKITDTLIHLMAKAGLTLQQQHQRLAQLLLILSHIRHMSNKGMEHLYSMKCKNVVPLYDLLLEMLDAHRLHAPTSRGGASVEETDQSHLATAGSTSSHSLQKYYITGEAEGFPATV
Assay: Nano Glo HiBiT Lytic Degradation Assay
Assay type: cell-based
Conditions: 6 hours with compound, 14-point dose response 1:3, bell-shape curve fit, half-maximal effect of first Hill model, read-out: MCF7 ESR1 HiBiT - (DC50)
Outline: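 Lytic Nano-Glo HiBiT luminescence quantified ERα remaining after a 6 h, 37° C compound exposure of MCF7 cells carrying endogenous HiBiT-tagged ESR1. Dosing used 14 threefold dilutions from a 10 mM DMSO stock (0.1% DMSO final), run in duplicate. Signals were corrected for cell-free background and expressed relative to DMSO, and DC50 came from a bell-shaped curve fit (first Hill model half-maximum).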

SMILES	DC50
O=C1CC[C@H](N2Cc3cc(N4CCN(CC5CCN(c6ccc([C@@H]7c8ccc(O)cc8CC[C@]78CCc7ccccc78)cc6)CC5)CC4)ccc3C2=O)C(=O)N1 [Compound I-262, (S)-3-(5-(4-((1-(4-((1R,1′S)-6′-hydroxy-2,3,3′,4′-tetrahydro-1′H-spiro[indene-1,2′-naphthalen]-1′-yl)phenyl)piperidin-4-yl)methyl)piperazin-1-yl)-1-oxoisoindolin-2-yl)piperidine-2,6-dione]	2 nM
O=C1CC[C@H](N2Cc3cc(N4CCN(CC5CCN(c6ccc([C@@H]7c8ccc(O)cc8CC[C@@]78CCCc7ccccc78)cc6)CC5)CC4)ccc3C2=O)C(=O)N1 [Compound I-264, (S)-3-(5-(4-((1-(4-((1S,1′S)-6′-hydroxy-3,3′,4,4′-tetrahydro-1′H,2H-1,2′-spirobi[naphthalen]′-yl)phenyl)piperidin-4-yl)methyl)piperazin-1-yl)-1-oxoisoindolin-2-yl)piperidine-2,6-dione]	0.43 nM
O=C1CC[C@H](N2Cc3cc(N4CCN(CC5CCN(c6ccc([C@H]7c8ccc(O)cc8CO[C@]78CCc7ccccc78)cc6)CC5)CC4)ccc3C2=O)C(=O)N1 [Compound I-267, (S)-3-(5-(4-((1-(4-((1R,4′S)-7′-hydroxy-2,3-dihydrospiro[indene-1,3′-isochroman]-4′-yl)phenyl)piperidin-4-yl)methyl)piperazin-1-yl)-1-oxoisoindolin-2-yl)piperidine-2,6-dione]	4 nM
C[C@H]1OC2(CCCCC2)[C@@H](c2ccc(N3CCC(CN4CCN(c5ccc6c(c5)CN([C@H]5CCC(=O)NC5=O)C6=O)CC4)CC3)cc2)c2ccc(O)cc21 [Compound I-268, (S)-3-(5-(4-((1-(4-((1′R,4′S)-7′-hydroxy-1′-methylspiro[cyclohexane-1,3′-isochroman]-4′-yl)phenyl)piperidin-4-yl)methyl)piperazin-1-yl)-1-oxoisoindolin-2-yl)piperidine-2,6-dione]	≥ 10000 nM
O=C1CC(N2Cc3cc(N4CCN(CC5CCN(c6ccc([C@@H]7c8ccc(O)cc8CC[C@@H]7c7ccccc7)cc6)CC5)CC4)ccc3C2=O)C(=O)N1 (stereo partly drawn) [Compound I-274, 3-(5-(4-((1-(4-((1R,2S)-6-hydroxy-2-phenyl-1,2,3,4-tetrahydronaphthalen-1-yl)phenyl)piperidin-4-yl)methyl)piperazin-1-yl)-1-oxoisoindolin-2-yl) pyrrolidine-2,5-dione]	1 nM
O=C1CCN(c2ccc(N3CCC4(CCN(CC5CCN(c6ccc([C@@H]7c8ccc(O)cc8CC[C@@H]7c7ccccc7)cc6)CC5)C4)CC3)cc2)C(=O)N1 [Compound I-291, 1-(4-(2-((1-(4-((1R,2S)-6-hydroxy-2-phenyl-1,2,3,4-tetrahydronaphthalen-1-yl)phenyl)piperidin-4-yl)methyl)-2,8-diazaspiro[4.5]decan-8-yl)phenyl)dihydropyrimidine-2,4 (1H,3H)-dione]	0.7 nM
O=C1CCN(c2ccc(N3CCC4(CCN(CC5CCN(c6ccc([C@@H]7c8ccc(O)cc8C(F)(F)C[C@@H]7c7ccccc7)cc6)CC5)C4)CC3)cc2)C(=O)N1 [Compound I-292, 1-(4-(2-((1-(4-((1R,2S)-4,4-difluoro-6-hydroxy-2-phenyl-1,2,3,4-tetrahydronaphthalen-1-yl)phenyl)piperidin-4-yl)methyl)-2,8-diazaspiro[4.5]decan-8-yl)phenyl)dihydropyrimidine-2,4 (1H,3H)-dione]	0.73 nM
Cc1cc(N2CCC3(CCN(CC4CCN(c5ccc([C@@H]6c7ccc(O)cc7CC[C@@H]6c6ccccc6)cc5)CC4)C3)CC2)ccc1N1CCC(=O)NC1=O [Compound I-293]	0.52 nM
Cn1nc(N2CCC(=O)NC2=O)c2ccc(N3CCN(CC4CCN(c5ccc([C@@H]6c7ccc(O)cc7CC[C@@H]6c6ccccc6)cc5)CC4)CC3)cc21 [Compound I-299, 1-(6-(4-((1-(4-((1R,2S)-6-hydroxy-2-phenyl-1,2,3,4-tetrahydronaphthalen-1-yl)phenyl)piperidin-4-yl)methyl)piperazin-1-yl)-1-methyl-1H-indazol-3-yl)dihydropyrimidine-2,4 (1H,3H)-dione]	1 nM
Cn1nc(N2CCC(=O)NC2=O)c2ccc(N3CCN(CC4CCN(c5ccc([C@@H]6c7ccc(O)cc7C(F)(F)C[C@@H]6c6ccccc6)cc5)CC4)CC3)cc21 [Compound I-300, 1-(6-(4-((1-(4-((1R,2S)-4,4-difluoro-6-hydroxy-2-phenyl-1,2,3,4-tetrahydronaphthalen-1-yl)phenyl)piperidin-4-yl)methyl)piperazin-1-yl)-1-methyl-1H-indazol-3-yl)dihydropyrimidine-2,4 (1H,3H)-dione]	3300 nM
O=C1CCC(n2cc3cc(N4CCN(CC5CCN(c6ccc([C@@H]7c8ccc(O)cc8CC[C@@H]7c7ccccc7)cc6)CC5)CC4)ccc3n2)C(=O)N1 (some centres unmarked) [Compound I-301]	1 nM
O=C1CCC(n2ncc3cc(N4CCN(CC5CCN(c6ccc([C@@H]7c8ccc(O)cc8CC[C@@H]7c7ccccc7)cc6)CC5)CC4)ccc32)C(=O)N1 (some centres unmarked) [Compound I-302]	2 nM
O=C1CCC(N2Cc3cc(N4CCN(CC5CCN(c6ccc([C@@H]7c8ccc(O)cc8C(F)(F)C[C@@H]7c7ccccc7)cc6)CC5)CC4)ccc3C2=O)C(=O)N1 (stereo partly drawn) [Compound I-305, 3-(5-(4-((1-(4-((1R,2S)-4,4-difluoro-6-hydroxy-2-phenyl-1,2,3,4-tetrahydronaphthalen-1-yl)phenyl)piperidin-4-yl)methyl)piperazin-1-yl)-1-oxoisoindolin-2-yl)piperidine-2,6-dione]	0.32 nM
O=C1CC[C@@H](N2Cc3cc(N4CCN(CC5CCN(c6ccc([C@@H]7c8ccc(O)cc8C(F)(F)C[C@@H]7c7ccccc7)cc6)CC5)CC4)ccc3C2=O)C(=O)N1 [Compound I-306, (R)-3-(5-(4-((1-(4-((1R,2S)-4,4-difluoro-6-hydroxy-2-phenyl-1,2,3,4-tetrahydronaphthalen-1-yl)phenyl)piperidin-4-yl)methyl)piperazin-1-yl)-1-oxoisoindolin-2-yl)piperidine-2,6-dione]	0.6 nM
O=C1CC[C@H](N2Cc3cc(N4CCN(CC5CCN(c6ccc([C@H]7c8ccc(O)cc8C(F)(F)C[C@H]7c7ccccc7)c(F)c6)CC5)CC4)ccc3C2=O)C(=O)N1 [Compound I-307, (S)-3-(5-(4-((1-(4-((1R,2R)-4,4-difluoro-6-hydroxy-2-phenyl-1,2,3,4-tetrahydronaphthalen-1-yl)-3-fluorophenyl)piperidin-4-yl)methyl)piperazin-1-yl)-1-oxoisoindolin-2-yl)piperidine-2,6-dione]	19 nM
O=C1CCC(c2ccc(N3CCC4(CCN(CC5CCN(c6ccc([C@@H]7c8ccc(O)cc8C(F)(F)C[C@@H]7c7ccccc7)cc6)CC5)C4)CC3)cc2)C(=O)N1 (stereo partly drawn) [Compound I-308, 3-(4-(2-((1-(4-((1R,2S)-4,4-difluoro-6-hydroxy-2-phenyl-1,2,3,4-tetrahydronaphthalen-1-yl)phenyl)piperidin-4-yl)methyl)-2,8-diazaspiro[4.5]decan-8-yl)phenyl)piperidine-2,6-dione]	0.65 nM
O=C1CCC(N2Cc3cc(N4CCN(CC5CCN(c6ccc([C@@H]7c8ccc(O)cc8C(F)(F)C[C@@H]7c7ccc(F)cc7)cc6)CC5)CC4)ccc3C2=O)C(=O)N1 (stereo partly drawn) [Compound I-309, 3-(5-(4-((1-(4-((1R,2S)-4,4-difluoro-2-(4-fluorophenyl)-6-hydroxy-1,2,3,4-tetrahydronaphthalen-1-yl)phenyl)piperidin-4-yl)methyl)piperazin-1-yl)-1-oxoisoindolin-2-yl)piperidine-2,6-dione]	0.39 nM
